One test deals with SH-SY5Y. As to the kind of experiment: Induction of neuronal differentiation in human SH-SY5Y cells assessed as increase in RARbeta mRNA expression at 0.001 to 1 uM measured after 8 hrs by RT-PCR analysis. In kind it is functional, cell-based.
For the next test, the species on record is Homo sapiens. As to the kind of experiment: Induction of neuronal differentiation in human TERA2.cl.SP12 cells assessed as small and scattered colonies of TUJ-1 positive cells at 10 uM measured measured after 2 weeks by immunofluorescence method. The format is functional, cell-based.

Activity calls are given as the source filed them. The rule behind the calls is not given here.

Consider `CC1=C(/C=C/C(C)=C/C=C/C(C)=C/C(=O)O)C(C)(C)CCC1`, for which the outcome with SH-SY5Y was Active.
On to `CCOCCOc1nc(-c2ccc(C(=O)O)cc2)sc1C`, for which the outcome in the test listed under Homo sapiens and in the test with SH-SY5Y was Active.
Turning to `CCOC(=O)c1ccc(-c2nc(-c3ccccc3)c(C)s2)cc1`, in the test listed under Homo sapiens, the outcome was Active.

For the origin of these results see ChEMBL document CHEMBL4219070, “Probing biological activity through structural modelling of ligand-receptor interactions of 2,4-disubstituted thiazole retinoids” (Bioorg Med Chem, 2018).
